Test system: Euschistus heros
Test: Euschistus heros (Neotropical Brown Stink Bug) contact/feeding activity on sprayed soybean plants
Assay type: in vivo
Conditions: for mortality at 50 ppm: 120 h, read-out: control (mortality and growth effects)
Procedure: Euschistus heros (Neotropical Brown Stink Bug) (Contact/Feeding Activity)
2 week old soybean plants are sprayed in a turn table spray chamber with the diluted spray solutions. After drying, 2 soybean seeds are added and plants are infested with 10 N-2 nymphs of the neotropical brown stink bug Euschistus heros in plastic test boxes. Boxes are incubated in a climate chamber at 25° C. and 60% RH. Evaluation is done 5 days after infestation on mortality and growth effects.
Compounds are tested according to the above method.

SMILES	mortality at 50 ppm	Control/% (application rate 0.8 ppm)	Control/% (application rate 3 ppm)	Control/% (application rate 12.5 ppm)
Cc1cc(C2=NOC(c3cc(Cl)cc(Cl)c3)(C(F)(F)F)C2)ccc1C(=O)NC1CON(C)C1=O (stereo not shown) [Compound A15]	≥ 80%			
CCN1OCC(NC(=O)c2ccc(C3=NOC(c4cc(Cl)cc(Cl)c4)(C(F)(F)F)C3)cc2C(F)(F)F)C1=O (stereo not shown) [Compound A4]	≥ 80%			
CCN1OCC(NC(=O)c2ccc(C3=NOC(c4cc(Cl)cc(Cl)c4)(C(F)(F)F)C3)cc2C)C1=O (stereo not shown) [Compound A17]	≥ 80%			
CCN1OCC(NC(=O)c2ccc(C3=NOC(c4cc(Cl)cc(Cl)c4)(C(F)(F)F)C3)cc2Br)C1=O (stereo not shown) [Compound A2]	≥ 80%			
CCN1OCC(NC(=O)c2ccc(C3=NOC(c4cc(Cl)c(Cl)c(Cl)c4)(C(F)(F)F)C3)cc2Br)C1=O (stereo not shown) [Compound A3]	≥ 80%			
CCN1OCC(NC(=O)c2ccc(C3=NOC(c4cc(Cl)c(Cl)c(Cl)c4)(C(F)(F)F)C3)cc2C(F)(F)F)C1=O (stereo not shown) [Compound A5]	≥ 80%			
Cc1cc(C2=NOC(c3cc(Cl)cc(Cl)c3)(C(F)(F)F)C2)ccc1C(=O)N[C@@H]1CON(Cc2ccccc2)C1=O (stereo partly shown) [Reference compound, reference compound]		0%	35%	90%
Cc1cc(C2=NOC(c3cc(Cl)cc(Cl)c3)(C(F)(F)F)C2)ccc1C(=O)N[C@@H]1CON(CC(F)(F)F)C1=O (stereo partly shown) [Compound of the invention]		15%	85%	100%
CCN1OCC(NC(=O)c2ccc(C3=NOC(c4cc(Cl)c(Cl)c(Cl)c4)(C(F)(F)F)C3)cc2Cl)C1=O (stereo not shown) [Compound A1]	≥ 80%			

— patent publication US12446583B2, “Methods of pest control in soybean” (SYNGENTA CROP PROTECTION AG, priority 2012, dated 2025)
